Source: ChEMBL document CHEMBL4041485, “Bissubvilides A and B, Cembrane-Capnosane Heterodimers from the Soft Coral Sarcophyton subviride” (J Nat Prod, 2016)
Where a name gives a salt, the structure may show the parent alone.

Key:
Format in all cases: functional, cell-based
[1] = test system: MG-63; experiment: Cytotoxicity against human MG63 cells by MTT assay
[2] = test system: Huh-7; experiment: Cytotoxicity against human HuH7 cells by CCK-8 assay
[3] = test system: A549; experiment: Cytotoxicity against human A549 cells by MTT assay

| Compound | IC50 [1] [µM] | IC50 [2] [µM] | IC50 [3] [µM] |
| --- | --- | --- | --- |
| CC1=C2CCC3=CCC[C@@](C)(OC3=O)[C@@H](O)CC/C(C)=C/[C@@H]2[C@@]23CC/C(C(C)C)=C\[C@H]4[C@@](C)(O)CC[C@]4(O)[C@@](C)(CC[C@@H]2C1)OC3=O | > 30 | > 50 | > 25 |
| C=C(C)/C1=C/[C@H]2[C@@](C)(O)CC[C@]2(O)[C@@]2(C)CC[C@@H]3CC(C)=C4CCC5=CCC[C@@](C)(OC5=O)[C@@H](O)CC/C(C)=C/[C@@H]4[C@]3(CC1)C(=O)O2 | > 30 | > 50 | > 25 |
| COc1cccc2c1C(=O)c1c(O)c3c(c(O)c1C2=O)C[C@@](O)(C(=O)CO)C[C@@H]3O[C@H]1C[C@H](N)[C@H](O)[C@H](C)O1 [DOXORUBICIN HYDROCHLORIDE] | 2.2 | 14.8 | 2.9 |
